Reference: patent publication US7319087B2, “Antimicrobial polypeptide from Aspergillus niger” (Novozymes A/S, priority 2001, dated 2008)
No end group written: not given here.

Key:
[1] = test system: A. oryzae BECh2; assay: Growth of transformants expressing the polypeptide in tubes with YPM (2% maltose); format: cell-based, Aspergillus oryzae; conditions: A. oryzae BECh2 transformed with expression plasmid, 6 days, 10 ml YPM (2% maltose)
Text: (§1) The A. niger anti-microbial polypeptide was inserted in the Aspergillus expression vector pMT2188 to give pMT2446 (i.e., pMT2188 with an insert comprising the A. niger anti-microbial gene): pMT2446 was transformed into A. oryzae BECh2 (disclosed, e.g., on page 26 of WO 00/39322) and into A. niger MBin118. Thirty transformants of each strain were re-isolated twice under selective and non-inducing conditions on Cove minimal plates with sucrose and acetamide. To test expression of the anti-microbial polypeptide, transformants were grown for 6 days in tubes with 10 ml YPM (2% maltose). Supernatants were run on NuPage 10% Bis-Tris SDS gels with MES running buffer to allow separation in the low mw range.

[2] = test system: A. niger MBin118; assay: as above; format: cell-based, Aspergillus niger; conditions: A. niger MBin118 transformed with expression plasmid, 6 days, 10 ml YPM (2% maltose)
Text: as §1

[3] = A. giganteus peptide, 51 amino acids; Campos-Olivas et al. (1995); cited from earlier work

Substance	growth on YPM of host transformants [1]	growth on YPM of host transformants [2]	pl [3]
A. giganteus anti-fungal polypeptide (AFP): A. giganteus anti-fungal polypeptide (AFP) disclosed in WO 94/01459 (ATYNGKCYKKDNICKYKAQSGKTAICKCYVKKCPRDGAKCEFDSYKGKCYC; UniProt P17737 44-94, looked up)	Growth was inhibited	Growth was inhibited	–
A. giganteus peptide: anti-fungal peptide from Aspergillus giganteus (Nakaya et al. 1990), 51 amino acids, four S-S bridges (ATYNGKCYKKDNICKYKAQSGKTAICKCYVKKCPRDGAKCEFDSYKGKCYC; disulfide (positions not given here); not fully specified (bridges); also: four S-S bridges, pairing not given here; UniProt P17737 44-94, looked up)	–	–	9.3
A. niger anti-microbial polypeptide: 58 amino acid mature polypeptide with anti-microbial activity from Aspergillus niger, SEQ ID NO: 2 (positions 1 to 58), expressed from pMT2446 (MQLTSIAIILFAAMGAIANPIAAEADNLVAREAELSKYGGECSVEHNTCTYLKGGKDH; Aspergillus niger)	seemed inhibited	seemed to grow normally	–
